We go through one compound from ChEMBL document CHEMBL3232845 (Bioorg Med Chem Lett, 2014).

Common to all, as to set-up: scale not given: the % may be the effect or the level left
The target in experiment [1] is Myotonin-protein kinase (Homo sapiens) (UniProt Q09013). The experiment can be described thus: Inhibition of human DMPK assessed as enzyme activity at 1 uM relative to control.
For experiment [2], the target named is Serine/threonine-protein kinase ULK3 (Homo sapiens) (UniProt Q6PHR2). The experiment can be described thus: Inhibition of human ULK3 assessed as enzyme activity at 1 uM relative to control.
Experiment [3] deals with Serine/threonine-protein kinase VRK2 (Homo sapiens) (UniProt Q86Y07). The experiment can be described thus: Inhibition of human VRK2 assessed as enzyme activity at 1 uM relative to control.
The target in experiment [4] is Serine/threonine-protein kinase Nek2 (Homo sapiens) (UniProt P51955). Nature of the experiment: Inhibition of human NEK2 assessed as enzyme activity at 1 uM relative to control.
The target in experiment [5] is Tyrosine-protein kinase ITK/TSK (Homo sapiens) (UniProt Q08881). The experiment can be described thus: Inhibition of human ITK assessed as enzyme activity at 1 uM relative to control.
Experiment [6] addresses LIM domain kinase 1 (Homo sapiens) (UniProt P53667). Nature of the experiment: Inhibition of human LIMK1 assessed as enzyme activity at 1 uM relative to control.
Experiment [7] has as its target Serine/threonine-protein kinase haspin (Homo sapiens) (UniProt Q8TF76). Nature of the experiment: Inhibition of human Haspin assessed as enzyme activity at 1 uM relative to control.

Chain of Serine/threonine-protein kinase ULK3 (Homo sapiens) (Q6PHR2 whole entry): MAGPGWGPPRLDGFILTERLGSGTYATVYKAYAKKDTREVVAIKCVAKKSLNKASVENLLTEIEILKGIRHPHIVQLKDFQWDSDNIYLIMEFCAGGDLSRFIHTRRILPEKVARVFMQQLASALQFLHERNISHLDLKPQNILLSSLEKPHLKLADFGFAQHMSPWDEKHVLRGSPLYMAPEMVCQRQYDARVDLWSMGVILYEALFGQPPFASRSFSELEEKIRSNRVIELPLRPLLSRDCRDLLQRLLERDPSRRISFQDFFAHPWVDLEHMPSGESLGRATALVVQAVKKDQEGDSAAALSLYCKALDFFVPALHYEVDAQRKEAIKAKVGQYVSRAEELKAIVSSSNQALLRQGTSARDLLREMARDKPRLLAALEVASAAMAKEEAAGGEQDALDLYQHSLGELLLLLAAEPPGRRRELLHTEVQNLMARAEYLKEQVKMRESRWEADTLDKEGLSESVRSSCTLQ
Chain of LIM domain kinase 1 (Homo sapiens) (P53667 whole entry, looked up, the tested form may be a part): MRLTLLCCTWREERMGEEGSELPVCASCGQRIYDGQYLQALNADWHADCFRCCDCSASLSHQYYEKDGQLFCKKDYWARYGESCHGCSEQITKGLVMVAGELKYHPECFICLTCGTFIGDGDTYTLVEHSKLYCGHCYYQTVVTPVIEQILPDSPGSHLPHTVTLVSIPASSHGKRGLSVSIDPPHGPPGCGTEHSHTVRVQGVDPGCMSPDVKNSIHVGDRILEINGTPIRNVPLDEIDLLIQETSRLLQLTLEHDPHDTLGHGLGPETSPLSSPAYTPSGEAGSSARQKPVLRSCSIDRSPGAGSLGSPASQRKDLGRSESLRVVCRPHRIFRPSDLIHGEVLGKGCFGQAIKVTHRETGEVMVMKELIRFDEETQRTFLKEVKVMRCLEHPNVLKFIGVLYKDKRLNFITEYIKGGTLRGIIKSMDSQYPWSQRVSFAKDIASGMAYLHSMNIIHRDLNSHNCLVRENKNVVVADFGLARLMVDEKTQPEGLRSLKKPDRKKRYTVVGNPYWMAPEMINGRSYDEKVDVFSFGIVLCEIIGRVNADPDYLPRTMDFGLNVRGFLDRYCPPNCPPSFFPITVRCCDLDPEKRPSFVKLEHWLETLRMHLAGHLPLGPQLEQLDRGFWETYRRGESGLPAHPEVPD
Chain of Myotonin-protein kinase (Homo sapiens) (Q09013 whole entry): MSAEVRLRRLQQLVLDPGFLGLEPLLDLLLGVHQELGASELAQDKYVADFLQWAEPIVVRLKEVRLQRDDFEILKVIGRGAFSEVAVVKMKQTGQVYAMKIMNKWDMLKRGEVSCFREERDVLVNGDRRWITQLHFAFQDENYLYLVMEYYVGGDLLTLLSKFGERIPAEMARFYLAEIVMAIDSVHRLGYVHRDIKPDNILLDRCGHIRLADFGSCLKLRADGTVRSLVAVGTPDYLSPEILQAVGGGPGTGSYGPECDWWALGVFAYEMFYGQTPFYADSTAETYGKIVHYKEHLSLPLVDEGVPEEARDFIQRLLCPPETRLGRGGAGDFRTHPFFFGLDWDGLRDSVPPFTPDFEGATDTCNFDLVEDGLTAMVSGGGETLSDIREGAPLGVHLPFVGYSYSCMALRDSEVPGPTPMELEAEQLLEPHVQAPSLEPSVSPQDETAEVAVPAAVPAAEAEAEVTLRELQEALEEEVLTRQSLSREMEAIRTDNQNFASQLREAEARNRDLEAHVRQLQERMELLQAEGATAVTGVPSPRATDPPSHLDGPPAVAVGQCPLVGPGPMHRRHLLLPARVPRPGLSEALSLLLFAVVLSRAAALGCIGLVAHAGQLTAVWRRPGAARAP
Chain of Serine/threonine-protein kinase Nek2 (Homo sapiens) (P51955 whole entry): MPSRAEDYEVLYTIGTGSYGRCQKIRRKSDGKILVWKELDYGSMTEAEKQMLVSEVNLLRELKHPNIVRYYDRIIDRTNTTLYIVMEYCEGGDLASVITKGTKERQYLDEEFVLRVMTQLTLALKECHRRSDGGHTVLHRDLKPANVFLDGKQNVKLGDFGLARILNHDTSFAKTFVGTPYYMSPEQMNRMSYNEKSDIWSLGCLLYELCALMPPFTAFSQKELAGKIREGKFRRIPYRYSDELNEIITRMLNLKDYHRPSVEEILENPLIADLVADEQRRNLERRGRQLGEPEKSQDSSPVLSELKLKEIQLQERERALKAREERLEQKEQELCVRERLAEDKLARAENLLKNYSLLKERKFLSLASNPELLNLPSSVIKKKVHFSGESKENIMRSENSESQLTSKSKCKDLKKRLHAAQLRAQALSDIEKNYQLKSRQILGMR
Chain of Serine/threonine-protein kinase haspin (Homo sapiens) (Q8TF76 whole entry): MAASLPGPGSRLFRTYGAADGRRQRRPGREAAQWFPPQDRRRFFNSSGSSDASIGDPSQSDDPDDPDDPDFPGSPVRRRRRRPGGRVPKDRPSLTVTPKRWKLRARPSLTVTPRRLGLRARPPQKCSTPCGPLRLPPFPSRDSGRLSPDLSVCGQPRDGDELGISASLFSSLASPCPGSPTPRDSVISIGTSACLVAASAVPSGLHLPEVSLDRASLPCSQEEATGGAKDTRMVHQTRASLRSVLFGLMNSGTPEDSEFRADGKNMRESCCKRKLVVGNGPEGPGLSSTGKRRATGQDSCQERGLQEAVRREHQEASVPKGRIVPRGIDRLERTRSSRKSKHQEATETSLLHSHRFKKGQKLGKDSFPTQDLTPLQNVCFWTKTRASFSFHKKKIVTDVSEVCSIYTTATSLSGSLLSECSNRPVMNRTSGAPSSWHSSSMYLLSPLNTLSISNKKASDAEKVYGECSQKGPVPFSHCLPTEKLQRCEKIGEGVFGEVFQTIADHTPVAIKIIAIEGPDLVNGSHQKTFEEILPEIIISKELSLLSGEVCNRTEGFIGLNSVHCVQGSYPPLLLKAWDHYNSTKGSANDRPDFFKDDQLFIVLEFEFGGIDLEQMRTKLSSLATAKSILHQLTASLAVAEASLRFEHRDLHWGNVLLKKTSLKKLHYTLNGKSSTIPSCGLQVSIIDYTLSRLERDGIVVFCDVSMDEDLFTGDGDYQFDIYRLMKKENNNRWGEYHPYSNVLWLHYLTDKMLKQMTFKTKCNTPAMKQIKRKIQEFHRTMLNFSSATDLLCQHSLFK
Chain of Tyrosine-protein kinase ITK/TSK (Homo sapiens) (Q08881 whole entry, the tested form may be a part): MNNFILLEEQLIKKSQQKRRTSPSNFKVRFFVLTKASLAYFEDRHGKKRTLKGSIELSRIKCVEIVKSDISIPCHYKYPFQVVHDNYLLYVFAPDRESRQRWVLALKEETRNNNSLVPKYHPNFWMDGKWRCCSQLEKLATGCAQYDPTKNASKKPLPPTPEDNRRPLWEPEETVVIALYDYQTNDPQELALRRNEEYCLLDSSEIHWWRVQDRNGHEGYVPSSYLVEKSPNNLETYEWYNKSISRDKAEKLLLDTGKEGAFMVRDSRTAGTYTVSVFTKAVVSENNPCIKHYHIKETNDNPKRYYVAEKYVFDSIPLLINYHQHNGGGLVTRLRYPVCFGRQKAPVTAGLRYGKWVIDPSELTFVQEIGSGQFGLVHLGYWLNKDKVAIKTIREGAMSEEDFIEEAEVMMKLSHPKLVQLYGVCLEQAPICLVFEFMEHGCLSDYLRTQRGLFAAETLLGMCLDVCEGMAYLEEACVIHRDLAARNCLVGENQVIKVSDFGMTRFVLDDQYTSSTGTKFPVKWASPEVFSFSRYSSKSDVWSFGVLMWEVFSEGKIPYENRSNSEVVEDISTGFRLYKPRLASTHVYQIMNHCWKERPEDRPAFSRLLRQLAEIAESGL
Chain of Serine/threonine-protein kinase VRK2 (Homo sapiens) (Q86Y07 whole entry): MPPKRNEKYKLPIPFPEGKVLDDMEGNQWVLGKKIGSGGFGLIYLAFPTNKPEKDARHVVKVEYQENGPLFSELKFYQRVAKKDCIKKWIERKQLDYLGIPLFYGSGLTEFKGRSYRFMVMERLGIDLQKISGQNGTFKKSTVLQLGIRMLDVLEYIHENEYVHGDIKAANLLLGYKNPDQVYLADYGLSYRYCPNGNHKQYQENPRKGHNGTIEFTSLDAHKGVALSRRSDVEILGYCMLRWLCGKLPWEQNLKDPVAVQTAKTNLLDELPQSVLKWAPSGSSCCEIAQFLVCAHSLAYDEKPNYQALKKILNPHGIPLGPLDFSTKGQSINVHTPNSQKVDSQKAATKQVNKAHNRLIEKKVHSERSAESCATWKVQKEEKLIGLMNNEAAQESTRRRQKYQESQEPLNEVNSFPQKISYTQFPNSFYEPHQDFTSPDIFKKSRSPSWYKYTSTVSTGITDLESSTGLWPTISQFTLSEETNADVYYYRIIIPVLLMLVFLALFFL

Regarding `CCCS(=O)(=O)Nc1cccc(Nc2ccc3ncn(C)c(=O)c3c2)c1C#N`, the Activity in experiment [1] was determined as 93%; in experiment [2], 92%; in experiment [3], 102%; in experiment [4], 116%; in experiment [5], 102%; in experiment [6], 85%. For the same compound, the Activity in experiment [7] came out at 99.5%.
